{"source": "patent US20260062677A1", "about": "“ECTODERMAL MESENCHYMAL STEM CELLS AND METHOD FOR PRODUCING SAME” (STEMRIM INC., priority 2017, published 2026)", "key": {"[1]": {"tested_on": "Pα^+ and Prx1^lin− cells in the skin graft", "assay": "Parabiosis model (Pα-H2B-GFP::Prx1-Cre::Rosa26-tdTomato / wild-type) with wild-type neonate skin graft", "format": "in vivo, mouse", "details": "peptide given to the reporter partner, neonate skin grafted on back of the wild-type partner; FIG. 26", "description": "(§1) A parabiosis model was created using a 6-week old male wild-type mouse and a 6-week old male cell lineage tracing mouse with reference to Kamran P et al. J Vis Exp. 2013 Oct. 6; (80). Two mice were simultaneously subjected to general anesthetic induction with isoflurane, and positioned on a heat pad. The body side surfaces opposite to each other of the two mice were shaved, and the skin was removed approximately 5 mm wide from the elbow joint to the knee joint. The dorsal skin was continuously sutured with 5-0 VICRYL. The elbow joints and knee joints each opposite to each other were sutured with 3-0 VICRYL. The abdominal skin was also continuously sutured with 5-0 VICRYL. The mice were left on the heat pad until awakened from anesthesia. To avoid restricting activity, up to one pair were raised per cage, and scattered food was offered.\n(§2) The present inventors have previously identified a peptide (HA1-44 peptide) consisting of the amino acid sequence of positions 1-44 (SEQ ID NO: 1) at the N-terminus of HMGB1 protein as a domain having the activity of mobilizing bone marrow-derived Pα-positive mesenchymal stem cells into peripheral blood. […] Furthermore, a cartilage injury was created to the knee joint of a wild-type mouse alone that was not a parabiosis model, then the HA1-44 peptide or saline was administered."}, "[2]": {"tested_on": "Pα^lin+ cells in grafted skin", "assay": "Parabiosis model (Pα-Cre::Rosa26-EYFP / wild-type) with epidermolysis bullosa mouse skin graft", "format": "in vivo", "details": "peptide given to the Pα-Cre::Rosa26-EYFP partner, epidermolysis bullosa skin grafted on the wild-type partner; FIG. 25", "description": "as §1, §2"}, "[3]": {"tested_on": "colony-forming Pα cells in peripheral blood", "assay": "Colony assay of cultured peripheral blood after HA1-44 peptide administration", "format": "in vivo, mouse", "details": "FIG. 24", "procedure": "The following method was used to recover cells from peripheral blood. Approximately 800 to 1000 μL of peripheral blood was collected from the heart under general anesthesia (using a 1 mL syringe containing heparin). To remove red blood cells, Hetasep (STEMCELL Technologies, Inc., Cat No. ST-07906) at equal amount of the collected blood was added, the mixture was centrifuged at 100 G for 2 minutes, and incubated at room temperature for 15 minutes, then the supernatant was recovered. The supernatant was subjected to the next experiment as a sample containing nuclear cells in peripheral blood.\nThe supernatant obtained by the above procedure (sample containing nucleated cells in peripheral blood) was seeded in a 6-well plate coated with collagen I (Corning Incorporated, Cat No. 356400), and cultured for 10 days under a condition of 37° C., 5% CO2, 5% 02 using a medium containing 1% L-glutamine (NACALAI TESQUE, INC.), 10 μM ROCK inhibitor (Y27632, Tocris Bioscience) and 1% penicillin/streptomycin (NACALAI TESQUE, INC.) in an expansion medium prepared using a MesenCult Expansion Kit (STEMCELL Technologies, Inc., Cat No. ST-05513) according to the manual of the kit (all concentrations described are final concentrations). The medium was replaced with a fresh medium twice a week during the culture period. […]"}, "[4]": {"tested_on": "P0^lin+ cells at the cartilage injury site", "assay": "Parabiosis (P0-Cre::Rosa26-tdTomato / wild-type) and knee cartilage defect model", "format": "in vivo, mouse", "details": "100 μg via tail vein, twice a week until 4 weeks; knee joint collected at 12 weeks; versus saline (no accumulation); FIG. 27", "description": "as §1\nA parabiosis model was created using a 6-week old male wild-type mouse and a 6-week old male P0-Cre::Rosa26-tdTomato mouse using the method described in 3. above. After completion of the blood chimera at 4 weeks after operation, a 0.5×0.5×0.5 mm cartilage defect was created in the knee joint of the wild-type mouse using a 0.5 mm-diameter hand-turned drill (manufactured by MEISINGER USA, L.L.C.). […] It was sliced at a thickness of 10 μm using a cryostat, and the distribution of Tomato-positive cells was analyzed by confocal microscopy. […]"}, "[5]": {"tested_on": "knee cartilage injury site", "assay": "Knee cartilage defect model in wild-type mouse, safranin O staining", "format": "in vivo", "details": "wild-type mouse alone; 100 μg via tail vein twice a week until 4 weeks; 2, 4, 8 and 12 weeks; saline group only fibrous cartilage; FIG. 28", "procedure": "A parabiosis model was created using a 6-week old male wild-type mouse and a 6-week old male P0-Cre::Rosa26-tdTomato mouse using the method described in 3. above. After completion of the blood chimera at 4 weeks after operation, a 0.5×0.5×0.5 mm cartilage defect was created in the knee joint of the wild-type mouse using a 0.5 mm-diameter hand-turned drill (manufactured by MEISINGER USA, L.L.C.). Shortly after the cartilage defect was created, 100 μg of HA1-44 peptide diluted with 100 μL of saline was administered from the tail vein and subsequently administered at the same dose twice a week until 4 weeks after operation. To the control group, 100 μL of saline was administered to each mouse from the tail vein on the same schedule as in the HA1-44 peptide administration group. A knee joint was collected 12 weeks after knee cartilage defect creation, then fixation with 4% paraformaldehyde (overnight), deashing with 0.5 M EDTA solution (3 days), and 30% sucrose replacement (1 day) were performed to create a frozen block. It was sliced at a thickness of 10 μm using a cryostat, and the distribution of Tomato-positive cells was analyzed by confocal microscopy. […]"}, "[6]": {"tested_on": "CD45-negative, TER-119-negative, and PDGFRβ-positive cells", "assay": "Phase I clinical study, cells in circulating blood", "format": "in vivo", "details": "human, intravenous administration; peripheral blood mononuclear cell fractions before, 8 h and 24 h after administration; FIG. 33", "description": "Since PDGFRβ is a marker of human mesenchymal stem cells, it is believed that a marker (including a combination of multiple markers) defining iCFPα cells and vertebral CFPα cells in peripheral blood described herein, in which the term “PDGFRα” is replaced with the term “PDGFRβ”, will also be a marker (including a combination of multiple markers) defining EMSC (colony-forming PDGFR-positive cells in peripheral blood or in vertebra) in humans."}, "[7]": {"tested_on": "vertebral Pα cells", "assay": "Transcriptome and IPA pathway analysis of vertebral Pα cells after administration", "format": "in vivo, mouse", "details": "compared to control group (saline)", "procedure": "RNA was extracted from the cell population, and an RNA-seq library was created according to Smart-seq2 protocol (Nature Protocols 9, 171-181 (2014) doi: 10.1038/nprot.2014.006). The obtained library was sequenced with Nextseq 500 (Illumina, Inc.) using a nextseq high output kit (37 bp pair end reads). Using bcl2fastq v2.17.1.14 of Illumina, Inc. with default parameters and optional --no-lane-splitting, conversion of base calls to fastq format and demultiplex were performed. Reads were trimmed using TrimGalore (http://www.bioinformatics.babraham.ac.uk/projects/trim_galore/), and mapping and counting (quantification) were performed using RSEM (Li et al., BMC Bioinformatics 12, 323 (2011); version STAR-2.5.2b). Differential expression analysis among samples was performed using DESeq2 (Love et al., Genome Biol. 15, 550 (2014)). Differentially Expressed Genes (DEGs) were uploaded to the Ingenuity Pathway Analysis (IPA) software (https://www.qiagenbioinformatics.com) to extract the most relevant biological pathways and functions to DEGs. Clustering analysis was performed using ICGS algorithm of AltAnalyze_v.2.1.0-Py based on log 2 converted values of 1-added TPM (Transcripts Per kilobase Million) counts obtained with RSEM (log 2 (TPM+1)). […]"}}}
{"substance": "HA1-44 peptide: peptide consisting of amino acid sequence of positions 1-44 (MGKGDPKKPRGKMSSYAFFVQTCREEHKKKHPDASVNFSEFSKK) at the N-terminus of A-box of HMGB1 protein", "values": [{"measurement": "Pα^+ and Prx1^lin− cells in the skin graft", "setting": "[1]", "result": "presence of Pα^+ and Prx1^lin− cells in the skin graft was confirmed"}, {"measurement": "Pα^lin+ cells expressing type 7 collagen in regenerated epithelial tissue of the skin graft", "setting": "[2]", "result": "presence of Pα^lin+ cells expressing type 7 collagen was confirmed"}, {"measurement": "number of colonies obtained by culturing peripheral blood", "setting": "[3]; lineage tracing mice, versus control group (saline administration)", "result": "more colonies than peripheral blood in the control group"}, {"measurement": "markers of the colonies obtained (Pα, Prx1 lineage)", "setting": "[3]; peripheral blood of lineage tracing mice given the peptide", "result": "All of the colonies were Pα-positive, and the majority of which were Prx1 lineage-negative"}, {"measurement": "accumulation of P0^lin+ cells at the cartilage injury site", "setting": "[4]", "result": "accumulation of P0^lin+ cells was confirmed"}, {"measurement": "cartilage regeneration at the cartilage injury site", "setting": "[5]", "result": "hyaline cartilage was regenerated"}, {"measurement": "CD45-negative, TER-119-negative, and PDGFRβ-positive cells in circulating blood", "setting": "[6]", "result": "increase"}, {"measurement": "pathways associated with EIF2 signaling, regulation of eIF4 and p70S6K signaling, and mTOR signaling", "setting": "[7]; FIG. 31", "result": "activated"}, {"measurement": "expression of cell death-related genes", "setting": "[7]; FIG. 32", "result": "suppressed"}]}
